From ChEMBL document CHEMBL1811844, “Design, synthesis, and biological evaluation of triazolo-pyrimidine derivatives as novel inhibitors of hepatitis B virus surface antigen (HBsAg) secretion” (J Med Chem, 2011)

Assay: Cytotoxicity against human HepG2(2.2.15) cells by MTT assay
Type: cell-based

Compound `Cc1ccc(C2=CC(c3c(F)cccc3Cl)n3ncnc3N2)cc1C` (stereo unspecified) has a CC50 of over 50 µM.
